# Laboratory results from article PMC11266321 (EJNMMI Radiopharmacy and Chemistry, 2024).
# Several values for one entry are separate records, joined by “and”; a condition that tells them apart may be missing. Identical values can stand only once.
# Tests used:
# [1] = molecular target: T1, GABA B (Homo sapiens, UniProt Q9UBS5); assay: Radioligand binding inhibition, GABA B; conditions: 10 µM; radioligand [^3H]GABA; mean of duplicate
# T1 construct: Sekisui Medical (contract laboratory)
# Method: (§1) Interaction of MMP with 28 binding sites was examined, including major classes of neurotransmitter receptor, uptake system, and ion channels (Sekisui Medical, Naka, Japan). MMP was tested in all assays at 10 µM. […] Each determination was made in duplicate.
# (§2) Test substance concentration : 10 µM, positive substance concentration : 10 µM
# (§3) Data are expressed as the mean values of duplicate samples.
# (§4) The % inhibition was calculated from “100 – binding ratio”.
# (§5) Binding ratio: [(B - N) / (B0 - N)] × 100 (%)
# (§6) B: Bound radioactivity in the presence of test substance and positive substance (individual value)
# (§7) B0: Total bound radioactivity in the absence of test substance and positive substance (mean value)
# (§8) N: Non-specific bound radioactivity (mean value)
# [2] = tested on: Escherichia coli (WP2uvrA); assay: Ames test (reverse bacterial mutation test), E. coli; type: cell-based; conditions: with and without S9 mixture, 78.1–5000 µg/plate
# Source text: (§9) The MMP was custom synthesized by the Nard Institute (Kobe, Japan) using methods described previously (Toyohara et al. [2020a]). All other chemical reagents were obtained from commercial sources. Male ddY mice were obtained from Japan SLC (Hamamatsu, Japan). Sprague–Dawley rats [Crl: CD(SD)] were obtained from […] (Yokohama, Japan). Animal studies were approved by the Animal Care and Use Committee of the Tokyo Metropolitan Institute for Geriatrics and Gerontology (Approval Nos. 22,015 and 23,007) and Nihon Bioresearch (Hashima, Japan; Approval Nos. 430,085 and 430,086). Acute toxicity studies were performed under the “Revisions of the Guidelines for Single and Repeated Dose Toxicity Studies” (PMDA, 1993). Ames test was performed under the “Guidance on Genotoxicity Testing and Data Interpretation for Pharmaceuticals Intended for Human Use” (PMDA, 2012).
# Mutagenicity tests were performed at the Hashima Research Center, Nihon Bioresearch, under non-GLP control. MMP was tested for mutagenicity by the Ames test with four histidine-requiring strains of Salmonella typhimurium (TA98, TA100, TA1535, and TA1537) and one strain of Escherichia coli (WP2uvrA), with and without the S9 mixture, at a dose range of 78.1–5000 µg/plate according to the standard method.
# [3] = molecular target: T2, Adenosine A1 (Homo sapiens, UniProt P30542); assay: Radioligand binding inhibition, Adenosine A1; conditions: 10 µM; radioligand [^3H]DPCPX; mean of duplicate
# T2 construct: Sekisui Medical (contract laboratory)
# T2 sequence (P30542 whole entry): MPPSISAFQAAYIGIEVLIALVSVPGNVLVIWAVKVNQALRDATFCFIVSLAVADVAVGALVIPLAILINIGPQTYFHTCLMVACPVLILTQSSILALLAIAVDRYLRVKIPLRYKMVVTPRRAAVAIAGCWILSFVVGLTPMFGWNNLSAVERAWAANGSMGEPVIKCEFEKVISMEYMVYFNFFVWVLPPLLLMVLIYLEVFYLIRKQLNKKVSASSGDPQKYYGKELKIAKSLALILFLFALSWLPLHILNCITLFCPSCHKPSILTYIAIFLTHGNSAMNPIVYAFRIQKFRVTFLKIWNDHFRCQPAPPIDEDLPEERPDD
# Method: as §1, §2, §3, §4, §5, §6, §7, §8
# [4] = tested on: Sprague–Dawley rats; assay: Acute toxicity of MMP, single intraperitoneal injection; type: in vivo, rat
# Source text: as §9
# In Japan, the structure of nonclinical toxicology studies for PET drugs in clinical research is the responsibility of the ethics committee of each institution or the subcommittee of specialities of PET drugs. According to the method used previously for approval of PET drugs for clinical use in our institute (Toyohara et al. [2013], [2016], [2020b]; Sakata et al. [2017]), we performed single-arm acute toxicology studies of the active pharmaceutical ingredient (MMP) and final dose formulation ([^11C]MMP injection). Mutagenicity tests will also be conducted, as there are concerns about stochastic effects on genotoxicity.
# Acute toxicity studies were performed at the Hashima Research Center, Nihon Bioresearch, under non-Good Laboratory Practice (GLP) control. Acute toxicity of MMP was tested in Sprague–Dawley rats. MMP at a dose of 3.55 mg/kg body weight (0.71 mg/mL in 10 v/v% dimethyl sulfoxide containing water for injection) was injected intraperitoneally into 5-week-old rats weighing 143–172 g (male, n = 5) and 129–135 g (female, n = 5). The dose of 3.55 mg/kg body weight is the 10,000-fold equivalent of the postulated maximum administration dose (1.85 nmol/0.355 µg/kg body weight) of 740 MBq [^11C]MMP, with the lowest molar activity (Am) of 10 MBq/nmol for humans weighing 40 kg. Rats were observed frequently until 1 h and then at 2, 4, and 6 h after the injection on day 1, and thereafter once daily for 14 days for clinical signs of toxicity. Rats were weighed on days 1, 2, 4, 7, 10, and 14. At the end of the 14-day observation period, the rats were euthanized by exsanguination under isoflurane anaesthesia, and a macroscopic analysis of the autopsy samples was performed.
# [5] = tested on: Glutamate (non-selective); assay: Radioligand binding inhibition, Glutamate non-selective; conditions: 10 µM; radioligand [^3H]Glutamic acid; mean of duplicate
# Method: (§10) Interaction of MMP with 28 binding sites was examined, including major classes of neurotransmitter receptor, uptake system, and ion channels (Sekisui Medical, Naka, Japan). MMP was tested in all assays at 10 µM. […] 10.2.3 (GraphPad Software, San Diego, CA). Each determination was made in duplicate.
# as §2, §3, §4, §5, §6, §7, §8
# [6] = molecular target: T3, Histamine H2 (Homo sapiens, UniProt P25021); assay: Radioligand binding inhibition, Histamine H2; conditions: 10 µM; radioligand [^125I]Iodoaminopotentidine; mean of duplicate
# T3 construct: Sekisui Medical (contract laboratory)
# T3 sequence (P25021 whole entry): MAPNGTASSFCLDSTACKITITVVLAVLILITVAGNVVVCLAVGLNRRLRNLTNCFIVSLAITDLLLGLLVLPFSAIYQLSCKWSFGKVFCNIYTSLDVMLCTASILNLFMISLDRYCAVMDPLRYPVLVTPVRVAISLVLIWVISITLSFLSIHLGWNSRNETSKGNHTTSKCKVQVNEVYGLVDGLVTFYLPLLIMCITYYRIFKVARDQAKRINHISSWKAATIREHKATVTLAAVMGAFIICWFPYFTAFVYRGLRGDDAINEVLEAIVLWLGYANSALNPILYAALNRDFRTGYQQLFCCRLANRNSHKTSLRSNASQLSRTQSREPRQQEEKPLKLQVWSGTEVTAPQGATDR
# Method: as §10, §2, §3, §4, §5, §6, §7, §8
# [7] = molecular target: T4, Glutamate (NMDA glycine site) (Homo sapiens, UniProt Q05586); assay: Radioligand binding inhibition, Glutamate NMDA glycine site; conditions: 10 µM; radioligand [^3H]MDL105,519; mean of duplicate
# T4 construct: Sekisui Medical (contract laboratory)
# Method: as §10, §2, §3, §4, §5, §6, §7, §8
# [8] = tested on: GABA A (BZ central); assay: Radioligand binding inhibition, GABA A BZ central; conditions: 10 µM; radioligand [^3H]Flunitrazepam; mean of duplicate
# Method: as §10, §2, §3, §4, §5, §6, §7, §8
# [9] = tested on: Glutamate (NMDA agonist site); assay: Radioligand binding inhibition, Glutamate NMDA agonist site; conditions: 10 µM; radioligand [^3H]CGP-39653; mean of duplicate
# Method: as §10, §2, §3, §4, §5, §6, §7, §8
# [10] = molecular target: T5, Muscarinic M1 (Homo sapiens, UniProt P11229); type: binding; conditions: 10 µM; radioligand [^3H]Pirenzepine; mean of duplicate
# T5 construct: Sekisui Medical (contract laboratory)
# T5 sequence (P11229 whole entry): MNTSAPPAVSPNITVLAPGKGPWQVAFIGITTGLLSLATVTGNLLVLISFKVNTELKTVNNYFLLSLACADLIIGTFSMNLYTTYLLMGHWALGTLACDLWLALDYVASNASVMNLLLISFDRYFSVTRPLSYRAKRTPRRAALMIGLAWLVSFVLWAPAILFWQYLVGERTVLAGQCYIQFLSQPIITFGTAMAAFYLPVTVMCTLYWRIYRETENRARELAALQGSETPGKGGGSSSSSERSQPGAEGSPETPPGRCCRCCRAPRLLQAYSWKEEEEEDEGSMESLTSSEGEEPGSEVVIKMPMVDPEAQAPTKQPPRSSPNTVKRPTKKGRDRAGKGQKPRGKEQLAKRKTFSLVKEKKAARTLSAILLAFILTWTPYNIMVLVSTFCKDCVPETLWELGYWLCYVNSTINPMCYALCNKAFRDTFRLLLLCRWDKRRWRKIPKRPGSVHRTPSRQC
# [11] = tested on: Glutamate (NMDA phencyclidine site); assay: Radioligand binding inhibition, Glutamate NMDA phencyclidine site; conditions: 10 µM; radioligand [^3H]MK-801; mean of duplicate
# Method: as §10, §2, §3, §4, §5, §6, §7, §8
# [12] = tested on: Glycine (strychnine site); type: binding; conditions: 10 µM; radioligand [^3H]Strychine; mean of duplicate
# [13] = molecular target: T6, Serotonin 5HT1A (Homo sapiens, UniProt P08908); assay: Radioligand binding inhibition, Serotonin 5HT1A; conditions: 10 µM; radioligand [^3H]8-OH DPAT; mean of duplicate
# T6 construct: Sekisui Medical (contract laboratory)
# T6 sequence (P08908 whole entry): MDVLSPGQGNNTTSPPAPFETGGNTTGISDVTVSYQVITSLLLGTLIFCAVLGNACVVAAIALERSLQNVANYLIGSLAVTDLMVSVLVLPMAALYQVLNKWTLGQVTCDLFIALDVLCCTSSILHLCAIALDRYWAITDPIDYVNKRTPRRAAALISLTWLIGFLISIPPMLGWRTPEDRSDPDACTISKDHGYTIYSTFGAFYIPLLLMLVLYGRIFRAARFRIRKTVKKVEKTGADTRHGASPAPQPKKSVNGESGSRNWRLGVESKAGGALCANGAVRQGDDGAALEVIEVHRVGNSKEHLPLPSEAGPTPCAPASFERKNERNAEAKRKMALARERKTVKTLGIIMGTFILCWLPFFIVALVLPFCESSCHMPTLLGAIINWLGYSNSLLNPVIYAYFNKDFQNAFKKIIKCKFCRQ
# Method: as §10, §2, §3, §4, §5, §6, §7, §8
# [14] = tested on: Glutamate (Ketamine); assay: Radioligand binding inhibition, Glutamate (Ketamine); conditions: 10 µM; radioligand [^3H]Kainic acid; mean of duplicate
# [15] = tested on: Sigma (non-selective); assay: Radioligand binding inhibition and competitive inhibition curve, sigma receptor
# Method: as §1
# Data are expressed as mean values of duplicate samples.
# as §2, §3, §4, §5, §6, §7, §8
# T1 sequence (Q9UBS5 15-961 limits assumed): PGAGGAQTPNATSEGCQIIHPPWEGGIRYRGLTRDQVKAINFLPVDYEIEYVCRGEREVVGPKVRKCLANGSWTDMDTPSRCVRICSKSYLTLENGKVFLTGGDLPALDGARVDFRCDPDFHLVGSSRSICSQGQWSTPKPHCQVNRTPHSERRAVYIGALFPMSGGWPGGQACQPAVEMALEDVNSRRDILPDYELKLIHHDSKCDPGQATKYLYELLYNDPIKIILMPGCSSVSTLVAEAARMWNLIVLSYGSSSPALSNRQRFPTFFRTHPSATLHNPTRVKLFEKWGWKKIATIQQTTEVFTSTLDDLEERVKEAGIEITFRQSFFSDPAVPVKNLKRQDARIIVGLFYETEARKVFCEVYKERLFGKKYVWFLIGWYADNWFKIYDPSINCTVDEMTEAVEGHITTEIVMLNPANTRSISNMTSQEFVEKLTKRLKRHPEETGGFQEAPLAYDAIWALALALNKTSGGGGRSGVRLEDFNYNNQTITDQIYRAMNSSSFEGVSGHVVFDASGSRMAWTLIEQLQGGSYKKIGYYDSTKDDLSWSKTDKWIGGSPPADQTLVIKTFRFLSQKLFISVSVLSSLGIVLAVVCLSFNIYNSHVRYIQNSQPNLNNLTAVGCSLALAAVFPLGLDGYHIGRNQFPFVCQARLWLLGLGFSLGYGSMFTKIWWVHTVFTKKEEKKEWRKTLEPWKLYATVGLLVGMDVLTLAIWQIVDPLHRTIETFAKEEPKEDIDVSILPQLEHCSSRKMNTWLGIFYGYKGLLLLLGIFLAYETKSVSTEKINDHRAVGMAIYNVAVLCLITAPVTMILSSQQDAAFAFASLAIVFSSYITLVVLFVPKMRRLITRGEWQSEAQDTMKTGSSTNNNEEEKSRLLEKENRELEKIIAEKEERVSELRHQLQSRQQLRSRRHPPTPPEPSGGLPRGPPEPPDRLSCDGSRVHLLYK
# T1 sequence (O75899 42-941 partner): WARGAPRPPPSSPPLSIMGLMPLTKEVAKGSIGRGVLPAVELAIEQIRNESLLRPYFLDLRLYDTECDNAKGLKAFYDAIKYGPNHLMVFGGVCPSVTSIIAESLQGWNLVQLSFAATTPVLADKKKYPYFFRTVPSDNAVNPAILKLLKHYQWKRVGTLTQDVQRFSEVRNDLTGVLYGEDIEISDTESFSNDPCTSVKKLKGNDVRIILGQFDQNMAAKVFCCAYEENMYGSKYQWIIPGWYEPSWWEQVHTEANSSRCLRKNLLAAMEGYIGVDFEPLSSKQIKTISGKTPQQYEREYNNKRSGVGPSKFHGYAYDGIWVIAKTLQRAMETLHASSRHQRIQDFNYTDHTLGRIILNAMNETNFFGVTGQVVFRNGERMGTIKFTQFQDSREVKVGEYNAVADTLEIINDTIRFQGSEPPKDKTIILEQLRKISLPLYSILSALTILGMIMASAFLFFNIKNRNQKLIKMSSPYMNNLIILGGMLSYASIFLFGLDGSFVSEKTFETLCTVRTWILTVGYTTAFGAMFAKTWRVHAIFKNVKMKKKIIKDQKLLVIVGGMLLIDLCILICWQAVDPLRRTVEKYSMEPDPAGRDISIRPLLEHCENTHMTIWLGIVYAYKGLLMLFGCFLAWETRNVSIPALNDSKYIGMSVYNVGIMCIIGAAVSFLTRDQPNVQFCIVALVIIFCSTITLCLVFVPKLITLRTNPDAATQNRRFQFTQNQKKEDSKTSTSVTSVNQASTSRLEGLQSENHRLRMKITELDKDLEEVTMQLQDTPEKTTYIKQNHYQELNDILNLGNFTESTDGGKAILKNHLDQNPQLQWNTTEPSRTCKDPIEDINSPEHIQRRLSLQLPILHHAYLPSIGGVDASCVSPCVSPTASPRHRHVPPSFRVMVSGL
structure (smiles),measurement,setting,value
"Cc1ccc(CC(C)NC(C)C)cc1 (stereo not shown) [MMP, N-isopropyl-p-methylamphetamine]",Inhibition ratio (%),[1],1.59%
same,mutagenic activity,[2],no mutagenic activity
same,Inhibition ratio (%),[3],3.26%
same,NOAEL as multiple of postulated maximum administration dose,"[4]; 740 MBq, Am 10 MBq/nmol, human body weight 40 kg","1,600 times"
same,acute toxicity,"[4]; rats, 3.55 mg/kg body weight (10,000 times potential maximum clinical dose)",No acute toxicity
same,body weight gain,"[4]; rats, single i.p. 3.55 mg/kg",normal gains in body weight
same,post-mortem macroscopic examination,"[4]; rats, single i.p. 3.55 mg/kg",no abnormalities
same,mortality,"[4]; rats, single i.p. 3.55 mg/kg, 14-day observation",no mortality
same,clinical signs of toxicity,"[4]; rats, single i.p. 3.55 mg/kg, 15-day period",no clinical signs of toxicity
same,Inhibition ratio (%),[5],0.00%
same,Inhibition ratio (%),[6],14.43%
same,Inhibition ratio (%),[7],0.22%
same,Inhibition ratio (%),[8],2.17%
same,Inhibition ratio (%),[9],4.63%
same,Inhibition ratio (%),[10],27.81%
same,Inhibition ratio (%),[11],0.00%
same,Inhibition ratio (%),[12],4.11%
same,Inhibition ratio (%),[13],15.84%
same,Inhibition ratio (%),[14],11.86%
same,Inhibition ratio (%),"[15]; 10 µM, radioligand [^3H]DTG, mean of duplicate",86% and 85.89%
same,IC50,"[15]; competitive inhibition curve, [^3H]DTG, duplicate",1100 nM
same,affinity for sigma receptor relative to existing sigma receptor ligand (haloperidol),[15]; fraction of the affinity of haloperidol,approximately 1/100
